Assay results taken from patent US7919498B2, “Substituted pyrazolo[3,4-d]pyrimidines as PI3K inhibitors” (Amgen Inc., priority 2007, dated 2011).
pIC50: −log10 of the molar value.

What was measured:
human B cells = assay: Human B cells proliferation stimulated by anti-IgM; format: cell-based; conditions: B-cell; anti-Human IgM + CD40L-LZ, 72 h, 3H thymidine
Description: Human B Cells Proliferation Stimulate by Anti-IgM
Isolate PBMCs from Leukopac or from human fresh blood. Isolate human B cells by using Miltenyi protocol and B cell isolation kit II.—human B cells were Purified by using AutoMacs.column.
Activation of Human B Cells
Use 96 well Flat bottom plate, plate 50000/well purified B cells in B cell proliferation medium (DMEM+5% FCS, 10 mM Hepes, 50 μM 2-mercaptoethanol); 150 μL medium contain 250 ng/mL CD40L-LZ recombinant protein (Amgen) and 2 μg/mL anti-Human IgM antibody (Jackson ImmunoReseach Lab.# 109-006-129), mixed with 50 μL B cell medium containing PI3K inhibitors and incubate 72 h at 37° C. incubator. After 72 h, pulse labeling B cells with 0.5-1 uCi/well ^3H thymidine for overnight ˜18 h, and harvest cell using TOM harvester.

PI3Kδ = biological target: T1, PI3Kδ (Homo sapiens, UniProt O00329); assay: In vitro enzyme assay of PI3Kδ (residual ATP bioluminescence); format: biochemical
T1 construct: Full length p110 subunits of PI3k α, β and δ, N-terminally labeled with polyHis tag; polyHis (N); made in house; host or cells: Sf9 insect cells (baculovirus)
Description: Recombinant Expression of PI3Ks
Full length p110 subunits of PI3k α, β and δ, N-terminally labeled with polyHis tag, were coexpressed with p85 with Baculo virus expression vectors in sf9 insect cells. P110/p85 heterodimers were purified by sequential Ni-NTA, Q-HP, Superdex-100 chromatography. Purified α, β and δ isozymes were stored at −20° C. in 20 mM Tris, pH 8, 0.2M NaCl, 50% glycerol, 5 mM DTT, 2 mM Na cholate. Truncated PI3Kγ, residues 114-1102, N-terminally labeled with polyHis tag, was expressed with Baculo virus in Hi5 insect cells. The γ isozyme was purified by sequential Ni-NTA, Superdex-200, Q-HP chromatography. The γ isozyme was stored frozen at −80° C. in NaH2PO4, pH 8, 0.2M NaCl, 1% ethylene glycol, 2 mM β-mercaptoethanol.
Assays were performed in 25 μL with the above final concentrations of components in white polyproplyene plates (Costar 3355). Phospatidyl inositol phosphoacceptor, PtdIns(4,5)P2 P4508, was from Echelon Biosciences. The ATPase activity of the alpha and gamma isozymes was not greatly stimulated by PtdIns(4,5)P2 under these conditions and was therefore omitted from the assay of these isozymes. Test compounds were dissolved in dimethyl sulfoxide and diluted with three-fold serial dilutions. The compound in DMSO (1 μL) was added per test well, and the inhibition relative to reactions containing no compound, with and without enzyme was determined. After assay incubation at room temperature, the reaction was stopped and residual ATP determined by addition of an equal volume of a commercial ATP bioluminescence kit (Perkin Elmer EasyLite) according to the manufacturer's instructions, and detected using a AnalystGT luminometer.

T1 sequence (O00329 whole entry): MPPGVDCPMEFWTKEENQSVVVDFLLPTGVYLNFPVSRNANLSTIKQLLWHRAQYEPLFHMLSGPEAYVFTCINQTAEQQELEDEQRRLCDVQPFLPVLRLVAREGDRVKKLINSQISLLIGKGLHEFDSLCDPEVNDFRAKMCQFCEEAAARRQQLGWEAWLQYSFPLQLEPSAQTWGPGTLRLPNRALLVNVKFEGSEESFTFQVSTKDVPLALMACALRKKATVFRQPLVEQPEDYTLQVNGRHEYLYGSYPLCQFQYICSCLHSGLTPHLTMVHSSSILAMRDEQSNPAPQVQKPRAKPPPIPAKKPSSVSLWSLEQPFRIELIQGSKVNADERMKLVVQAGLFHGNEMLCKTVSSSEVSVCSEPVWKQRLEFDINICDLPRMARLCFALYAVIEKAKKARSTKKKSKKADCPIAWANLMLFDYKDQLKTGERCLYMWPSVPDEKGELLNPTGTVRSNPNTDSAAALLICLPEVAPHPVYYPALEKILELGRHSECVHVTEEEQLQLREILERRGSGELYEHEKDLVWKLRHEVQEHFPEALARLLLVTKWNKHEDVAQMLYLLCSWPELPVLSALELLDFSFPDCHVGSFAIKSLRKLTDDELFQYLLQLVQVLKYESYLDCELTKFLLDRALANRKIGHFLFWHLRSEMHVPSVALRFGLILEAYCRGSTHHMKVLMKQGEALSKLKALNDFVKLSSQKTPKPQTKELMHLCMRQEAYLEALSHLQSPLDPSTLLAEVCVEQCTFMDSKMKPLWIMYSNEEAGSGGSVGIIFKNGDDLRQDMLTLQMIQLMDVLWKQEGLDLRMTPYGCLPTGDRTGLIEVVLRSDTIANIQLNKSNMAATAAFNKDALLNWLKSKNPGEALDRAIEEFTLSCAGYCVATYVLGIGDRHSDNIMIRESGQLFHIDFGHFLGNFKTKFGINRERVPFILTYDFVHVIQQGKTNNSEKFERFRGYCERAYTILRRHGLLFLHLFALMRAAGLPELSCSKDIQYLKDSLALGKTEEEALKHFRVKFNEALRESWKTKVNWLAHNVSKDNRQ
T1 sequence (P27986 whole entry partner): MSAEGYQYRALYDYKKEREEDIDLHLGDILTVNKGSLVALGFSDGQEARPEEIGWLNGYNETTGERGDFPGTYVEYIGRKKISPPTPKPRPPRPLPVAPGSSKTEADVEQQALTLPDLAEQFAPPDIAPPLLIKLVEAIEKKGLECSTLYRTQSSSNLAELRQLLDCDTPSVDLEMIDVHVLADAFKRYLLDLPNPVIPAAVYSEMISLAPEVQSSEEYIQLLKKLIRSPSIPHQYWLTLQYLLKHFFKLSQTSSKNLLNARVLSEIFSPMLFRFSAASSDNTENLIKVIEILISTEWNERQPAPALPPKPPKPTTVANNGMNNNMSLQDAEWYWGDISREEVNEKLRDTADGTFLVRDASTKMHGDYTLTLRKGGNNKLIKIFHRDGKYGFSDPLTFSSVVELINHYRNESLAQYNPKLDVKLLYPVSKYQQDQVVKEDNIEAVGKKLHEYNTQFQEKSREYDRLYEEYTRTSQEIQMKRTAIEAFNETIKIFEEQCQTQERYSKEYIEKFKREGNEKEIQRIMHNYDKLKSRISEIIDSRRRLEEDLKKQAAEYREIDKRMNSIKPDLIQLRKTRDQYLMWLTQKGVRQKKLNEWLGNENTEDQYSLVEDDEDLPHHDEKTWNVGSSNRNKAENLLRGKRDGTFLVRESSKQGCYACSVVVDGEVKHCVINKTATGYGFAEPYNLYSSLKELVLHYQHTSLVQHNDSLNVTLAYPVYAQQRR

Row | pIC50 (PI3Kδ) | Compound | pIC50 (human B cells)
1 | 5.67 | Cc1cccc2cc(Cn3cnc4c(N)ncnc43)c(-c3ccccc3Cl)nc12 [Example 1, 9-((2-(2-Chlorophenyl)-8-methylquinolin-3-yl)methyl)-9H-purin-6-amine] | 
2 | 7.24 | Cc1cccc2cc(Cn3ccc(=O)c4c(N)ncnc43)c(-c3ccccc3Cl)nc12 [Example 2, 4-Amino-8-((2-(2-chlorophenyl)-8-methylquinolin-3-yl)methyl)pyrido[2,3-d]pyrimidin-5(8H)-one] | 
3 | 7.85 | Nc1ncnc2c1c(I)nn2Cc1cc2cccc(Cl)c2nc1-c1ccccc1Cl [Example 5, 1-((8-Chloro-2-(2-chlorophenyl)quinolin-3-yl)methyl)-3-iodo-1H-pyrazolo[3,4-d]pyrimidin-4-amine] | 
4 | 8.15 | Nc1ncnc2c1c(I)nn2Cc1cc2cccc(Cl)c2nc1-c1ccccc1C(F)(F)F [Example 6, 1-((8-Chloro-2-(2-(trifluoromethyl)phenyl)quinolin-3-yl)methyl)-3-iodo-1H-pyrazolo[3,4-d]pyrimidin-4-amine] | 
5 | 8.40 | Cc1cccc2cc(Cn3nc(I)c4c(N)ncnc43)c(-c3ccccc3F)nc12 [Example 7, 1-((2-(2-Fluorophenyl)-8-methylquinolin-3-yl)methyl)-3-iodo-1H-pyrazolo[3,4-d]pyrimidin-4-amine] | 
6 | 8.10 | Cc1cccc2cc(Cn3nc(-c4cccc(O)c4)c4c(N)ncnc43)c(-c3ccccc3C(F)(F)F)nc12 [Example 8, 3-(4-Amino-1-((8-methyl-2-(2-(trifluoromethyl)phenyl)quinolin-3-yl)methyl)-1H-pyrazolo[3,4-d]pyrimidin-3-yl)phenol] | 
7 | 7.85 | Nc1ncnc2c1c(-c1cccc(O)c1)nn2Cc1cc2cccc(Cl)c2nc1-c1ccccc1Cl [Example 10, 3-(4-Amino-1-((8-chloro-2-(2-chlorophenyl)quinolin-3-yl)methyl)-1H-pyrazolo[3,4-d]pyrimidin-3-yl)phenol] | 
8 | 6.86 | Cc1cccc2cc(Cn3nc(C)c4c(N)ncnc43)c(-c3ccccc3Cl)nc12 [Example 11, 1-((2-(2-Chlorophenyl)-8-methylquinolin-3-yl)methyl)-3-methyl-1H-pyrazolo[3,4-d]pyrimidin-4-amine] | 
9 | 8.10 | Cc1cccc2cc(Cn3nc(-c4cn[nH]c4)c4c(N)ncnc43)c(-c3ccccc3C(F)(F)F)nc12 [Example 12, 1-((8-Methyl-2-(2-(trifluoromethyl)phenyl)quinolin-3-yl)methyl)-3-(1H-pyrazol-4-yl)-1H-pyrazolo[3,4-d]pyrimidin-4-amine] | 
10 | 6.83 | Cc1cccc2cc(Cn3nc(C4CC4)c4c(N)ncnc43)c(-c3ccccc3C(F)(F)F)nc12 [Example 13, 3-Cyclopropyl-1-((8-methyl-2-(2-(trifluoromethyl)phenyl)quinolin-3-yl)methyl)-1H-pyrazolo[3,4-d]pyrimidin-4-amine] | 
11 | 7.42 | Cc1cccc2nc(-c3ccccc3Cl)c(Cn3nc(I)c4c(N)ncnc43)nc12 [Example 15, 1-((3-(2-Chlorophenyl)-8-methylquinoxalin-2-yl)methyl)-3-iodo-1H-pyrazolo[3,4-d]pyrimidin-4-amine] | 
12 | 7.68 | Cc1cccc2nc(Cn3nc(I)c4c(N)ncnc43)c(-c3ccccc3Cl)nc12 [Example 16, 1-((3-(2-Chlorophenyl)-5-methylquinoxalin-2-yl)methyl)-3-iodo-1H-pyrazolo[3,4-d]pyrimidin-4-amine] | 
13 | 7.74 | Cc1cccc2nc(-c3ccccc3Cl)c(Cn3nc(-c4cn[nH]c4)c4c(N)ncnc43)nc12 [Example 17, 1-((3-(2-Chlorophenyl)-8-methylquinoxalin-2-yl)methyl)-3-(1H-pyrazol-4-yl)-1H-pyrazolo[3,4-d]pyrimidin-4-amine] | 
14 | 7.52 | Cc1cccc2nc(Cn3nc(-c4cn[nH]c4)c4c(N)ncnc43)c(-c3ccccc3Cl)nc12 [Example 18, 1-((3-(2-Chlorophenyl)-5-methylquinoxalin-2-yl)methyl)-3-(1H-pyrazol-4-yl)-1H-pyrazolo[3,4-d]pyrimidin-4-amine] | 
15 | 5.71 | Cc1cccc2cc(Cn3ccc4c(N)ncnc43)c(-c3ccccc3Cl)nc12 [Example 19, 7-((2-(2-Chlorophenyl)-8-methylquinolin-3-yl)methyl)-7H-pyrrolo[2,3-d]pyrimidin-4-amine] | 
16 | 7.70 | Cc1cccc2cc(Cn3cc(Cl)c4c(N)ncnc43)c(-c3ccccc3Cl)nc12 [Example 20, 5-Chloro-7-((2-(2-chlorophenyl)-8-methylquinolin-3-yl)methyl)-7H-pyrrolo[2,3-d]pyrimidin-4-amine] | 
17 | 7.48 | Nc1ncnc2c1c(=O)ccn2Cc1cc2cccc(Cl)c2nc1-c1ccccc1Cl [Example 22, 4-Amino-8-((8-chloro-2-(2-chlorophenyl)quinolin-3-yl)methyl)pyrido[2,3-d]pyrimidin-5(8H)-one] | 

The next lines start with the molecule.

Row | Compound | pIC50 (PI3Kδ) | pIC50 (human B cells)
18 | Nc1ncnc2c1c(I)nn2Cc1nc2cccc(F)c2nc1-c1ccccc1Cl [1-((3-(2-Chlorophenyl)-5-fluoroquinoxalin-2-yl)methyl)-3-iodo-1H-pyrazolo[3,4-d]pyrimidin-4-amine] |  | 6.26
19 | Nc1ncnc2c1c(I)nn2Cc1nc2c(F)cccc2nc1-c1ccccc1Cl [1-((3-(2-Chlorophenyl)-8-fluoroquinoxalin-2-yl)methyl)-3-iodo-1H-pyrazolo[3,4-d]pyrimidin-4-amine] |  | 6.09
20 | Cc1cccc2nc(Cn3nc(-c4cnn(C)c4)c4c(N)ncnc43)c(-c3ccccc3Cl)nc12 [1-((3-(2-chlorophenyl)-5-methylquinoxalin-2-yl)methyl)-3-(1-methyl-1H-pyrazol-4-yl)-1H-pyrazolo[3,4-d]pyrimidin-4-amine] |  | 7.43
21 | Cc1cccc2nc(-c3ccccc3Cl)c(Cn3nc(-c4cnn(C)c4)c4c(N)ncnc43)nc12 [1-((3-(2-chlorophenyl)-8-methylquinoxalin-2-yl)methyl)-3-(1-methyl-1H-pyrazol-4-yl)-1H-pyrazolo[3,4-d]pyrimidin-4-amine] |  | 7.70
22 | Nc1ncnc2c1c(-c1cn[nH]c1)nn2Cc1cc2cccc(Cl)c2nc1-c1ccccc1F [1-((8-chloro-2-(2-fluorophenyl)-3-quinolinyl)methyl)-3-(1H-pyrazol-4-yl)-1H-pyrazolo[3,4-d]pyrimidin-4-amine] |  | 7.74
23 | Cc1cccc2nc(Cn3nc(I)c4c(N)ncnc43)c(-c3cccc(F)c3)c(=O)n12 [2-((4-amino-3-iodo-1H-pyrazolo[3,4-d]pyrimidin-1-yl)-methyl)-3-(3-fluorophenyl)-6-methyl-4H-pyrido[1,2-a]pyrimidin-4-one] |  | 6.29
24 | Cc1cccc2nc(Cn3nc(C#N)c4c(N)ncnc43)c(-c3ccccc3Cl)nc12 [4-Amino-1-((3-(2-chlorophenyl)-5-methylquinoxalin-2-yl)methyl)-1H-pyrazolo[3,4-d]pyrimidine-3-carbonitrile] |  | 8.70
25 | Cc1cccc2nc(-c3ccccc3Cl)c(Cn3nc(C#N)c4c(N)ncnc43)nc12 [4-Amino-1-((3-(2-chlorophenyl)-8-methylquinoxalin-2-yl)methyl)-1H-pyrazolo[3,4-d]pyrimidine-3-carbonitrile] |  | 7.08
26 | Cc1ccccc1-c1nc2c(C)cccc2cc1Cn1nc(I)c2c(N)ncnc21 [Example 4, 3-Iodo-1-((8-methyl-2-o-tolylquinolin-3-yl)methyl)-1H-pyrazolo[3,4-d]pyrimidin-4-amine] | 8.22 | 
27 | Cc1cccc2cc(Cn3nc(C#CC(C)(C)O)c4c(N)ncnc43)c(-c3ccccc3C(F)(F)F)nc12 [Example 14, 4-(4-Amino-1-((8-methyl-2-(2-(trifluoromethyl)phenyl)quinolin-3-yl)methyl)-1H-pyrazolo[3,4-d]pyrimidin-3-yl)-2-methylbut-3-yn-2-ol] | 6.94 | 
28 | COc1ccccc1-n1c(Cn2ccc(=O)c3c(N)ncnc32)nc2cccc(Cl)c2c1=O [Example 21, 4-Amino-8-((5-chloro-3-(2-methoxyphenyl)-4-oxo-3,4-dihydroquinazolin-2-yl)methyl)pyrido[2,3-d]pyrimidin-5(8H)-one] | 7.89 | 
29 | Cc1nn([C@@H](C)c2cc3cccc(Cl)c3nc2-c2cccc(F)c2)c2ncnc(N)c12 [Example 23, 1-((S)-1-(8-chloro-2-(3-fluorophenyl)quinolin-3-yl)ethyl)-3-methyl-1H-pyrazolo[3,4-d]pyrimidin-4-amine] |  | 8.80
30 | Nc1ncnc2c1c(I)nn2Cc1cc2c(Cl)cccc2nc1-c1ccccc1Cl [Example 25, 1-((5-Chloro-2-(2-chlorophenyl)quinolin-3-yl)methyl)-3-iodo-1H-pyrazolo-[3,4-d]pyrimidin-4-amine] |  | 7.03
